Experimental data as given in US20260354376A1, “AGENT FOR IMPROVING ENVIRONMENTAL STRESS TOLERANCE” (OAT Agrio Co., Ltd., priority 2023, published 2026).

Tests used:
Format in all cases: in vivo
paddy rice (Koshihikari) [1] = experiment: Test Example 5: salt stress tolerance improvement in rice hydroponics (regenerated root length, sodium chloride); details: sodium chloride 120 mM, 6 days, untreated = 100
Method: (§1) In Example 5, a liquid culture medium prepared by diluting OAT House Fertilizer (registered trademark) Formulation A, manufactured by OAT Agrio Co., Ltd., was placed in an erlenmeyer flask. Then, sodium chloride was added to the liquid culture medium to give a final concentration of 120 mM, and the capsanthin or paprika pigment was added to the liquid culture medium to give the concentrations shown in Table 3. Next, paddy rice (Koshihikari) was grown to seedlings in culture soil, and then the roots were cut to a predetermined length. Five of the seedlings were inserted into each erlenmeyer flask. Then, after cultivation for 6 days, the length of the roots of the rice was measured, and the length of regenerated roots was calculated.
In Comparative Example 7, the same test as in Example 5 was repeated, except for using the liquid culture medium not containing the capsanthin or paprika pigment.
In Reference Example 4, the same test as in Example 5 was repeated, except for using the liquid culture medium containing a commercially available material for improving salt tolerance (material B) at the dilution factor shown in Table 5, instead of the capsanthin and paprika pigment.
The results of Example 5 and Reference Example 4 are expressed as the ratio (%) with respect to the result of Comparative Example 7 (untreated group) taken as 100.

paddy rice (Koshihikari) [2] = experiment: Test Example 4: high-temperature stress tolerance improvement in rice hydroponics (regenerated root length, 35 °C); details: for Ratio to Untreated Group (length of regenerated roots): 35 °C (High-Temperature Stress), 6 days, untreated = 100
Method: as §1, with “4,” for “5,”, “Then,” for “Then, sodium chloride was added to”, “above-described” for “liquid culture medium to give a final concentration of 120 mM, and the”, “4.” for “3.”, “cultivation at 35 °C” for “cultivation”
In Comparative Example 6, the same test as in Example 4 was repeated, except for using the liquid culture medium not containing the capsanthin or paprika pigment.
The results of Example 4 are expressed as the ratio (%) with respect to the result of Comparative Example 6 (untreated group) taken as 100.

paddy rice (Koshihikari) [3] = experiment: Test Example 3: growth-promoting effect in rice hydroponics (regenerated root length, 25 °C); details: 25° C. (Growth Promotion), 6 days, untreated = 100
Method: In Example 3, a liquid culture medium prepared by diluting OAT House Fertilizer (registered trademark) Formulation A, manufactured by OAT Agrio Co., Ltd., was placed in an erlenmeyer flask. The capsanthin concentration in the paprika pigment (manufactured by San-Ei Gen F. F. I., Inc.) was measured by high performance liquid chromatography at General Incorporated Association Japan Food Research Laboratories. As a result, about 221 mg of capsanthin was contained in 100 g of the paprika pigment. The measurement conditions were as follows. • Model: LC-20 (manufactured by Shimadzu Corporation) • Detector: UV-VIS absorption spectrometer SPD-20AV (manufactured by Shimadzu Corporation) • Column: Shim-pack CLC-SIL (M) (size: 4.6 mm×150 mm) (manufactured by Shimadzu Corporation) • Column temperature: 30 °C. • Mobile phase: mixture of hexane and acetone (81:19) • Flow rate: 1.1 mL/min • Measurement wavelength: 474 nm • Injection volume: 30 μL
Next, paddy rice (Koshihikari) was grown to seedlings in culture soil, and then the roots of the rice were cut to a predetermined length. Five of the cut seedlings were inserted into each erlenmeyer flask containing the above-described liquid culture medium. Then, after cultivation at 25 °C for 6 days, the length of the roots of the rice was measured, and the length of regenerated roots was calculated.
In Comparative Example 5, the same test as in Example 3 was repeated, except for using the liquid culture medium not containing the capsanthin or paprika pigment.
In Reference Example 3, the same test as in Example 3 was repeated, except for using the liquid culture medium containing a commercially available material for improving high-temperature tolerance (material A) at the dilution factor shown in Table 3.
The dilution factor is shown for Reference Example 3, because the content of the active ingredient in the commercially available product is unknown.
The results of Example 3 and Reference Example 3 are expressed as the ratio (%) with respect to the result of Comparative Example 5 (untreated group) taken as 100.

[4] = test system: wheat (variety: Chikugoizumi); experiment: Test Example 11: dryness stress tolerance improvement on wheat (weight of grains per plant); details: dryness stress (irrigation about half), 0.1%
Excerpt: In Example 11, wheat (variety: Chikugoizumi) was sown in 1/5000a Wagner pots and cultivated at a density of 2 plants/pot. Next, all pots were irrigated with the same amount of tap water until the ear-emergence stage of wheat, and irrigation with a chemical solution was started after the ear emergence. In this test, dryness stress was induced by reducing the amount of irrigation to about half of the normal amount. After yellow ripening of the wheat was confirmed, the aboveground portions of the wheat were harvested, and the weight of grains per plant was investigated. A 30 ppm aqueous solution of the paprika pigment was used as the chemical solution.
In Comparative Example 13, the same test as in the test of Example 11 using the paprika pigment was repeated, except for using water for irrigation after the ear emergence.
In Reference Example 10, the same test as in the test of Example 11 using the paprika pigment was repeated, except for using a commercially available material for improving salt tolerance (material B) at the dilution factor shown in Table 11. […]
The results of Example 11, and Reference Examples 10 and 11 are expressed as the ratio (%) with respect to the result of Comparative Example 13 (untreated group) taken as 100.

SMILES | Ratio to Untreated Group (length of regenerated roots) (paddy rice (Koshihikari) [1]; capsanthin 0.0000663 ppm) | Ratio to Untreated Group (length of regenerated roots) (paddy rice (Koshihikari) [1]; capsanthin 0.000221 ppm) | Ratio to Untreated Group (length of regenerated roots) (paddy rice (Koshihikari) [1]; capsanthin 0.00221 ppm) | Ratio to Untreated Group (length of regenerated roots) (paddy rice (Koshihikari) [1]; capsanthin 0.00663 ppm) | Ratio to Untreated Group (length of regenerated roots) (paddy rice (Koshihikari) [1]; capsanthin 0.0221 ppm) | Ratio to Untreated Group (length of regenerated roots) (paddy rice (Koshihikari) [1]; capsanthin 0.0663 ppm) | Ratio to Untreated Group (length of regenerated roots) (paddy rice (Koshihikari) [2]; capsanthin 0.00000663 ppm) | Ratio to Untreated Group (length of regenerated roots) (paddy rice (Koshihikari) [2]; capsanthin 0.0000663 ppm) | Ratio to Untreated Group (length of regenerated roots) (paddy rice (Koshihikari) [2]; capsanthin 0.000221 ppm) | Ratio to Untreated Group (length of regenerated roots) (paddy rice (Koshihikari) [2]; capsanthin 0.00221 ppm) | Ratio to Untreated Group (length of regenerated roots) (paddy rice (Koshihikari) [2]; capsanthin 0.00663 ppm) | Ratio to Untreated Group (length of regenerated roots) (paddy rice (Koshihikari) [2]; capsanthin 0.0221 ppm) | Ratio to Untreated Group (length of regenerated roots) (paddy rice (Koshihikari) [2]; capsanthin 0.0663 ppm) | effect compared with paprika pigment (in words) (paddy rice (Koshihikari) [2]; Tables 3 to 5 (25 °C, 35 °C, sodium chloride), same concentrations of capsanthin) | Ratio to Untreated Group (length of regenerated roots) (paddy rice (Koshihikari) [3]; capsanthin 0.00000663 ppm) | Ratio to Untreated Group (length of regenerated roots) (paddy rice (Koshihikari) [3]; capsanthin 0.0000663 ppm) | Ratio to Untreated Group (length of regenerated roots) (paddy rice (Koshihikari) [3]; capsanthin 0.000221 ppm) | Ratio to Untreated Group (length of regenerated roots) (paddy rice (Koshihikari) [3]; capsanthin 0.00221 ppm) | Weight of Grains, Average ([4]; untreated 7.3) | Weight of Grains, Ratio to Untreated Group ([4]; untreated = 100)
CC1=C(/C=C/C(C)=C/C=C/C(C)=C/C=C/C=C(C)/C=C/C=C(C)/C=C/C(=O)[C@]2(C)C[C@@H](O)CC2(C)C)C(C)(C)C[C@H](O)C1 [Capsanthin, capsanthin] | 104% | 103% | 107% | 114% | 111% | 126% | 115% | 132% | 113% | 122% | 114% | 109% | 140% | comparable effect to that of the paprika pigment | 104% | 102% | 102% | 108% | – | –
CC(=O)O [Potassium Acetate, potassium acetate] | – | – | – | – | – | – | – | – | – | – | – | – | – | – | – | – | – | – | 9.3 g DW/Plant | 126%
